US20150125863A1, “CXCL5 AS A MARKER OF HORMONE ESCAPE IN PROSTATE CANCER” (Institut National de la Sante Recherche Medicale (INSERM), priority 2010, published 2015)

How the values were obtained:
[1] = system: CXCL5 RNA levels in LNCaP cells; details: CDFCS + 10^-8 M Dihydrotestosterone vs CDFCS (FIG. 5B)
Description: CXCL5 RNA levels were measured by real-time PCR. CXCL5 levels in the presence of FCS were set to 1. Results represent the mean±SD of 3 independent experiments.
CWR-R1 and LNCaP cells were maintained in RPMI 1640 with Glutamax (Invitrogen, Carlsbad, USA), completed with 10% Foetal Calf Serum (FCS) and gentamycin. For androgen stimulations, cells were weaned off steroids before any experiment by culturing them in phenol red-free RPMI 1640 supplemented with 10% CDFCS (charcoal dextran-treated FCS) for 4 days.
Total RNA was prepared using TriReagent (Euromedex, Souffelweyersheim, France). The amount of RNA was estimated by spectrophotometry at 260 nm. Complementary DNAs (cDNA) were obtained from reverse transcription (RT) of 3 μg of total RNA in 13 μl of water RNase free. 1 μl of random hexanucleotides as primers (pd(N)6, 50 mM) in the presence of 1 μl of dNTPs (250 mM; Gibco BRL) were added to the RNA and incubated 5 minutes at 70° C. After, 5 μl of mix containing reverse transcriptase (1 μl) and reverse transcriptase buffer 5× (4 μl) were added to the RNA solution and incubated 1 h at 42° C. Real-time PCR quantification was then performed using a SYBR Green approach (Light Cycler; Roche) as previously described (Lucas et al. 2003 Biochem Biophys Res Commun 309:1011-1016). For each sample, CXCL5 mRNA levels were normalized with RS9 mRNA levels (reference gene).

[2] = system: CXCL5 RNA levels in CWR-R1 cells; assay: CXCL5 RNA levels by real-time PCR in CWR-R1 cells; assay type: cell-based; details: CDFCS + 10^-8 M Dihydrotestosterone vs CDFCS (FIG. 5A)
Description: (§1) Results represent the mean±SD of 3 independent experiments.
as §1

CWR-R1 cells = assay: In vitro proliferation of CWR-R1 cells; assay type: cell-based; details: CXCL5 1 or 50 ng/ml with 10^-5 M bicalutamide, 5 days (FIG. 6B)
Description: CWR-R1 cells were cultured in whole fetal calf serum (FCS), in the absence or in the presence of […] of bicalutamide. CXCL5 RNA levels were measured by real-time PCR. […] Results represent the mean±SD of 3 independent experiments. B. CXCL5 enhances the proliferation of CWR-R1 cells both in the absence and in the presence of the anti-androgen bicalutamide. CWR-R1 cells were cultured in FCS. Some cells were treated with 10^-5 M bicalutamide. The cells were either treated with Ethanol vehicle (C) or with CXCL5 (1 or 50 ng/ml). Proliferation was quantified 5 days after treatment by counting the cells.
2.5×10^4 cells per well were seeded in triplicate in 24-well culture plates in complete growth media previously described. Cell numbers were determined every two days for 6 days by counting with a malassez slide or by measuring of luciferase activity. For proliferation in complete fetal calf serum, cells were maintained in […] with RPMI 1640. To test the effects of androgens, cells were maintained in phenol-red free RPMI 1640 medium supplemented with 10% FCS.

[3] = system: CXCL5 expression in PC-3 cells; assay: Blocking experiments with shCXCL5, CXCL5 levels by Elisa in PC-3 cells; assay type: cell-based; details: PC-3 cells transfected with shCXCL5 vector, compared to Non-Target shRNA Control Vector, after 4 days, Elisa (FIG. 9B)
Description: (§2) A. PC-3 cells were grown for 4 days and either non treated (Control) or treated with goat serum (diluted 1/20) as isotype control antibody (Isotype) or with 0.5 μg/ml of CXCL5 antibody (CXCL5 Ab). Medium with or without treatment was changed at day 2. Results represent the mean of luciferase activity±SD after 4 days of 3 independent experiments. B, C. PC-3 cells were transfected with Non-Target shRNA Control (shCt) or shCXCL5 vector. 4 days later, the medium was collected and CXCL5 levels were measured by Elisa (B). The number of cells was counted on day 4 (C). A representative experiment is shown here.
(§3) 10^5 PC-3 cells plated in 6 well plated in 10% FCS with RPMI 1640 were transfected with 4 μg of Non-Target shRNA Control Vector (ShC002, Mission Library, Sigma-Aldrich) or shCXCL5 vector (SHCLND-NM_002994-TRCN0000057934NM_002994.3-304s1c1TRC1, Sequence SEQ ID NO: 6: […] Mission Library, Sigma-Aldrich) using Jet-PEI® protocol in each well. 8 h after transfection medium was changed. CXCL5 secretion was quantified 48 h later in conditioned medium by ELISA (Duoset, DY254, R&D system). Cells were counted 4 days after transfection using malassez slide.

PC-3 cells = assay: Blocking experiments with shCXCL5, PC-3 cell proliferation; assay type: cell-based; details: PC-3 cells transfected with shCXCL5 vector, cells counted on day 4 (FIG. 9C)
Description: as §2, §3

C[C@]12CCC(=O)C[C@@H]1CC[C@@H]1[C@@H]2CC[C@]2(C)[C@@H](O)CC[C@@H]12 [dihydrotestosterone]
effect on levels of CXCL5 RNA [1]: partially reduced
effect on levels of CXCL5 RNA [2]: partially reduced

recombinant CXCL5: recombinant C-X-C motif chemokine 5 added to CWR-R1 cells
effect on the inhibition of proliferation by bicalutamide (CWR-R1 cells): partially alleviate

shCXCL5: shRNA vector against CXCL5, SEQ ID NO: 6, Mission Library, Sigma-Aldrich (DNA CCGGGATCAGTAATCTGCAAGTGTTCTCGAGAACACTTGCAGATTACTGATCTTTTTG)
CXCL5 expression [3]: strongly reduced
inhibition of proliferation of PC-3 cells (PC-3 cells): more than 10 fold
